Test results reported in patent EP0584223B1, “NOVEL IMMUNOSUPPRESSIVE COMPOUNDS” (VERTEX PHARMACEUTICALS INCORPORATED, priority 1991, dated 1992).

Columns and labels:
[1] = tested on: human peripheral blood lymphocytes (PBC); experiment: Mitogenesis assay, PMA plus ionomycin stimulated proliferation; type: cell-based; conditions: Lymphocyte, read-out: PMA
[2] = molecular target: FKBP (Homo sapiens, UniProt P62942); experiment: Inhibition of FKBP PPIase (rotamase) activity, chymotrypsin-coupled assay; type: biochemical; conditions: apparent Ki
Chain of FKBP (P62942 whole entry): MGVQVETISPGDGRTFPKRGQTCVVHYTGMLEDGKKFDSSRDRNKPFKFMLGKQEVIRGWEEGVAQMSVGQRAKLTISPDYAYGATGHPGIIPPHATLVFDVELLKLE
Text: The inhibition of the PPIase (rotamase) enzyme activity of the FKBP (apparent "Ki" values) can also be measured according to the methods described by either Harding, M.W. et al., Nature 341:758-760 (1989) or Siekierka, J.J. et al., Nature 341:755-757 (1989). The cis-trans isomerization of the […] peptide bond in a model substrate, N-succinyl-Ala-Ala-Pro-Phe-p-nitroanilide, is monitored spectrophotometrically in a coupled assay with chymotrypsin, which releases 4-nitroanilide from the trans form of the substrate. Fischer, G. et al., Nature 337:476-478 (1989). The inhibitory effect of the addition of different concentrations of inhibitor on the extent of the reaction is determined, and analysis of the change in first order rate constant as a function of inhibitor concentration yields an estimate of the apparent Ki value.

[3] = tested on: CTLL-20 murine T cell line; experiment: IL-2 microassay, IL-2 dependent CTLL proliferation; type: cell-based; conditions: Mus musculus; inhibition of proliferation of cytotoxic T cells stimulated by IL-2; read-out: CTLL
[4] = tested on: PBLs stimulated with LB human viral-transformed B lymphoblastoid cell line; experiment: MLR bioassay, PBLs stimulated with LB cells; type: cell-based; conditions: mixed lymphocyte reaction, LB stimulator cells, inhibition of proliferation, read-out: LB
Text: (§1) Fresh peripheral blood lymphocytes (PBLs) from LeukoPak cells or whole blood from random normal blood donors (tested HIV-negative and hepatitis negative) are isolated and separated by density centrifugation over Histopaque 1077 (Sigma Chemical Co., St. Louis, MO). The murine CTLL cytotoxic T cell line and the human Jurkat T cell line are from ATCC (CTLL-2 ATCC TIB214, JURKAT CLONE E6-1 ATCC TIBl52). The human allogeneic B cell lines used for activation of the fresh PBLs are EBV-transformed lymphocytes from normal healthy adult donors with two completely different HLA haplotypes. All cell lines were routinely tested for the presence of Mycoplasma contamination using the Gibco Mycotect test kit and are Mycoplasma-free. Culture medium consists of RPMI 1640 (Gibco, Grand Island, NY) containing penicillin (50 U/ml) and streptomycin (50 µg/ml), L-glutamine 2 mM, 2 mercaptoethanol (5 x 10^-5), 10% heat-inactivated FCS and 10 mM HEPES.
(§2) All chemical stocks were dissolved in DMSO.
(§3) Antigen activated proliferation of PBLs in a primary mixed lymphocyte reaction was assessed in the presence or absence of different concentrations of tested compounds and control drugs. 5 x 10^4 fresh PBLs were stimulated with 5 x 10^3 of Mitomycin C treated-allogeneic EBV-transformed […] cells, LB and JVM, in a final volume of 200 µl per well in 96-well round-bottomed plates (Mishell, B.B. and S.M. Shiigi, Selected Methods in Cellular Immunology W.H. Freeman and Co., San Francisco, CA (1980); Nelson, P.A. et al., Transplantation 50:286 (1990)). Cultures were pulsed on day 6, harvested 24 h later and counted as in previous section.

[5] = tested on: human peripheral blood lymphocytes (PBC); experiment: Mitogenesis assay, OKT3 stimulated proliferation; type: cell-based; conditions: Lymphocyte, OKT3 (10^-4 dilution final), inhibition of proliferation, 3H-thymidine, read-out: OKT3
[6] = tested on: PBLs stimulated with JVM human viral-transformed B lymphoblastoid cell line; experiment: MLR bioassay, PBLs stimulated with JVM cells; type: cell-based; conditions: mixed lymphocyte reaction, JVM stimulator cells, inhibition of proliferation, read-out: JVM
Text: as §1, §2, §3

| Compound | Ki [2] | IC50 ([1]; 3 h) | IC50 [3] | IC50 [4] | IC50 [5] | IC50 [6] | IC50 [1] |
| --- | --- | --- | --- | --- | --- | --- | --- |
| COc1cc(C(=O)C(=O)N2CCCC[C@H]2C(=O)OC(CCCc2ccccc2)CCc2cccnc2)cc(OC)c1OC (mixture of isomers) [Compound 7, (R and S)-6-Phenyl-1-(3-pyridyl)-3-hexyl (S)-N-(3,4,5-trimethoxyphenylglyoxyl)pipecolate] |  | 2 µM | 2 µM | 5 µM | 2 µM | 5 µM |  |
| COc1cc(C(=O)C(=O)N2CCCC[C@H]2C(=O)OC(CCCc2ccccc2)CCCc2cccnc2)cc(OC)c1OC (mixture of isomers) [Compound 9, (R and S)-1-Phenyl-7-(3-pyridyl)-4-heptyl (S)-N-(3,4,5-trimethoxyphenylglyoxyl)pipecolate] |  | 1.8 µM | 2.5 µM | 6 µM | 1.2 µM | 6 µM |  |
| CC(C)(C)C(=O)C(=O)N1CCCC[C@H]1C(=O)OC(CCCc1ccccc1)CCCc1ccccn1 (mixture of isomers) [Compound 21, (R and S)-1-Phenyl-7-(2-pyridyl)-4-heptyl (S)-N-(tert-butylglyoxyl)-pipecolate] | 0.036 µM | 7 µM | 4 µM | 6 µM | 3 µM | 7 µM |  |
| COc1cc(C(=O)C(=O)N2CCCC[C@H]2C(=O)OC(CCCc2ccccc2)CCCc2ccc[n+]([O-])c2)cc(OC)c1OC (mixture of isomers) [Compound 22, (R and S)-1-Phenyl-7-(3-pyridyl)-4-heptyl (S)-N-(3,4,5-trimethoxyphenylglyoxyl)pipecolate N-oxide] |  |  | 2.3 µM | 2.2 µM | 1.6 µM | 2.5 µM | 1.5 µM |
| COc1cc(C(=O)C(=O)N2CCCC[C@H]2C(=O)OC(CCCc2ccccc2)CCCc2ccccc2)cc(OC)c1OC [Compound 3, (S)-1,7-Diphenyl-4-heptanyl N-(3,4,5-trimethoxyphenylglyoxyl)pipecolate] |  | > 8 µM | 8 µM | 10 µM | 2.25 µM | 8.5 µM |  |
| COc1cc(C(=O)C(=O)N2CCCC[C@H]2C(=O)OC(CCCc2ccccc2)CCCn2cnc3ccccc32)cc(OC)c1OC (stereo partly shown) [Compound 15] |  |  | 5 µM | 6 µM | 3 µM | 8 µM | 3 µM |
| O=C(C(=O)N1CCCC[C@H]1C(=O)OC(CCCc1ccccc1)CCCc1cccnc1)c1ccccc1 (stereo partly shown) [Compound 18] | 0.056 µM | 5 µM | 7 µM | 8 µM | 7 µM | 9 µM |  |
| COc1cc(C(=O)C(=O)N2CCCC[C@H]2C(=O)OC(CCCc2ccccc2)CCCn2ccc3cccnc32)cc(OC)c1OC (stereo partly shown) [Compound 23] |  |  | 3.5 µM | 7 µM | 7 µM | 6 µM | 5 µM |
| C=CCOc1cccc(C(=O)C(=O)N2CCCC[C@H]2C(=O)OC(CCCc2ccccc2)CCCc2cccnc2)c1 (stereo partly shown) [Compound 28] | 0.011 µM | 5 µM | 3 µM | 8 µM | 6 µM | 9 µM |  |
| COc1cc(C(=O)C(=O)N2CCCC[C@H]2C(=O)OC(CCCc2ccccc2)c2ccccc2O)cc(OC)c1OC (stereo partly shown) [Compound 38] |  |  | > 10 µM | > 10 µM | 5 µM | > 10 µM | > 10 µM |

Further lines, with some results ahead:

| Ki [2] | Compound | IC50 ([1]; 3 h) | IC50 [3] | IC50 [4] | IC50 [5] | IC50 [6] | IC50 [1] |
| --- | --- | --- | --- | --- | --- | --- | --- |
| 0.22 µM | COc1cc(C(=O)C(=O)N2CCCC[C@H]2C(=O)OC(CCCc2ccccc2)c2cccc(Oc3ccccc3)c2)cc(OC)c1OC (mixture of isomers) [Compound 4, (R and S)-1-(3-Phenoxy)phenyl-4-phenyl-1-butyl (S)-N-(3,4,5-trimethoxyphenylglyoxyl)pipecolate] | > 10 µM | > 10 µM | > 10 µM | > 10 µM | > 10 µM |  |
| 0.024 µM | COc1cc(C(=O)C(=O)N2CCCC[C@H]2C(=O)OC(CCCc2c[nH]c3ccccc23)Cc2ccccc2)cc(OC)c1OC (mixture of isomers) [Compound 11, (R and S)-5-(3-indolyl)-1-phenyl-2-pentyl (S)-N-(3,4,5-trimethoxyphenylglyoxyl)pipecolate] | 2.7 µM | 10 µM | 3.5 µM | 2 µM | 6.5 µM |  |
| 0.057 µM | COc1cc(C(=O)C(=O)N2CCCC[C@H]2C(=O)OCC(CCc2ccccc2)Cc2ccccc2)cc(OC)c1OC (mixture of isomers) [Compound 16, (R and S)-2-Benzyl-4-phenyl-1-butyl (S)-N-(3,4,5-trimethoxyphenylglyoxyl)pipecolate] | 5 µM | 6 µM | 9 µM | 7 µM | > 10 µM |  |
| 0.095 µM | COc1cc(C(=O)C(=O)N2CCC[C@H]2C(=O)OC(CCCc2ccccc2)CCCc2ccccn2)cc(OC)c1OC (stereo partly shown) [Compound 2] | 3.5 µM | 4 µM | 8 µM | 1.5 µM | 7 µM |  |
| 0.032 µM | COc1cc(C(=O)C(=O)N2CCCC[C@H]2C(=O)OC(CCCc2ccccc2)Cc2ccccc2)cc(OC)c1OC (stereo partly shown) [Compound 10] | 5.5 µM | 6 µM | 5.5 µM | 4 µM | 8 µM |  |
| 0.083 µM | COc1cc(C(=O)C(=O)N2CCCC[C@H]2C(=O)OC(CCCc2ccccc2)CCc2ccccc2)cc(OC)c1OC (stereo partly shown) [Compound 12] | 7 µM | 8.1 µM | 10 µM | 5 µM | 10 µM |  |
| 0.27 µM | COc1ccc(CCC(CCCc2ccccc2)OC(=O)[C@@H]2CCCCN2C(=O)C(=O)c2ccccc2)cc1 (stereo partly shown) [Compound 14] | > 10 µM | > 10 µM | > 10 µM | > 10 µM | > 10 µM |  |
| 0.05 µM | O=C(C(=O)N1CCCC[C@H]1C(=O)OC(CCCc1ccccc1)CCCc1ccccn1)c1ccccc1 (stereo partly shown) [Compound 19] | 6 µM | 5 µM | 10 µM | 8 µM | 10 µM |  |
| 0.015 µM | O=C(C(=O)N1CCCC[C@H]1C(=O)OC(CCCc1ccccc1)CCCc1cccnc1)c1cccc(OCc2ccccc2)c1 (stereo partly shown) [Compound 27] | 6 µM | 5 µM | 10 µM | 4 µM | 6 µM |  |
| 0.02 µM | COc1cc(C(=O)C(=O)N2CCCC[C@H]2C(=O)OC(CCCCc2ccccc2)CCCc2ccccc2)cc(OC)c1OC (stereo partly shown) [Compound 32] | 9 µM | 7.5 µM | > 10 µM | 8 µM | > 10 µM |  |
| 0.089 µM | COc1cc(C(=O)C(=O)N2CCCC[C@H]2C(=O)OC(CCCc2ccccc2)c2ccccc2CO)cc(OC)c1OC (stereo partly shown) [Compound 33] | 5 µM | 3 µM | 2 µM | 5 µM | 4.5 µM |  |
| 0.01 µM | COc1cc(C(=O)C(=O)N2CCCC[C@H]2C(=O)OC(CCCc2ccccc2)c2cccnc2)cc(OC)c1OC (stereo partly shown) [Compound 39] | 6 µM | 2.5 µM |  | 5.5 µM | 5 µM |  |
| 1.1 µM | COc1cc(C(=O)C(=O)N2CCCC[C@H]2C(=O)OC(CCCCc2ccccc2)CCCc2cccs2)cc(OC)c1OC (stereo partly shown) [Compound 40] | > 10 µM | 10 µM | > 10 µM | > 10 µM | > 10 µM |  |
| 0.045 µM | COc1cc(C(=O)C(=O)N2CCCC[C@H]2C(=O)OC(CCCCCc2ccccc2)CCCc2ccccc2)cc(OC)c1OC (stereo partly shown) [Compound 41] | 7 µM | > 10 µM | > 10 µM | > 10 µM | 10 µM |  |
